According to US20090233999A1, “COMPOSITIONS AND THERAPEUTIC METHODS INVOLVING ISOFLAVONES AND ANALOGUES THEREOF” (NOVOGEN RESEARCH PTY LTD, priority 1999, published 2009):
Marks after values point to notes of the source that are not given here.

Columns and labels:
HUVSMC = assay: Proliferation of human umbilical vein smooth muscle cells; format: cell-based; settings: VSMC, 120 h, 5 days
Description: Human umbilical vein smooth muscle cells (HUVSMC), tissue explants from a neonate (HRI— passage 2), were seeded into 96 well plates at 1×10^3 cells per well, and allowed to attach for 24 hours. They were then washed twice and incubated in medium without FBS for 24-48 hours to serum-starve them. Test compounds were prepared in medium without FBS and added to the plates and incubated for one hour. Medium with FBS was added to give a final concentration of 10% and the plates incubated for 5 days until the controls were just confluent. Final analogue concentration was therefore either a series from 150 μM to 1.2 μM, or single concentrations of 10 μM. The difference in absorbance between treated cells and untreated cells was calculated using the formula, test/control*100, to obtain the percentage change caused by the test compound. As well, an IC50 for each compound was calculated.

TNFα = assay: LPS-induced TNFα synthesis in RAW 264.7 murine macrophages; format: cell-based, mouse; settings: 10 μM; RAW 264.7, LPS
Description: Subconfluent RAW 264.7 cells were seeded into 24-well plates at 5×10^5 cells per well and allowed to adhere for 1 hr. Cells were then treated either test compound (in 0.025% DMSO) or vehicle alone, and incubated for 1 hr. LPS 50 ng/ml (LPS—Sigma-Aldrich) was then added. After incubation for 16 hrs, culture media was collected and stored at −80° C. TNFα measurement using an ELISA (Becton Dickinson).

[1] = system: BALB/c mice (AA-induced ear swelling); assay: Murine ear inflammation assay, AA-induced ear swelling; format: in vivo, mouse; settings: 25 mg/kg i/p; for % Change compared with vehicle / Change in ear thickness (mean ± SD, ×0.01 mm): AA, 1 hr post-AA
Description: (§1) Female BALB/c mice (ARC, WA, Australia), weighing 15-21 g, and maintained on an isoflavone-free diet (Gordon's Specialty Stock Foods, Yanderra, NSW) for at least seven days, were randomised into test groups of five or six. To reduce animal use, mice had ear swelling induced by applying AA (Sigma, Steinheim, Germany) initially, and then by phorbol 12-Myristate 13-acetate (PMA—Sigma, Mo., USA) one week later.
(§2) Test compounds were dissolved in polyethylene glycol (PEG) 400 (Sigma, St. Louis, Mo., USA):phosphate buffered saline 1:1 and injected intraperitoneally (i/p) at a dose of 25 mg/kg either 30 min prior to AA treatment or 1 hr prior to PMA treatment. Mice were anaesthetised using isoflurane (Veterinary Companies of Australia Pty Ltd, NSW, Australia) and baseline thickness of both ears was measured using a spring micrometer (Interapid, Zurich, Switzerland). Each mouse received a total of 20 μL of either AA in ethanol (50 mg/ml) or PMA in acetone (0.2 mg/ml) applied to the inner and outer surfaces of each pinna (i.e. 5 μL per ear surface). Mice were anaesthetised again to remeasure the ears at 1 hr post-AA application or at 5 hr post-PMA application.
(§3) The difference in ear swelling pre- and post-application of inflammogen for each ear was calculated. The difference in mean swelling of each test group compared to the group given vehicle alone was calculated using a two-tailed unpaired t-test (Prism 4, Graphpad Software).

[2] = system: BALB/c mice (PMA-induced ear swelling); assay: Murine ear inflammation assay, PMA-induced ear swelling; format: in vivo, mouse; settings: 25 mg/kg i/p; for % Change compared with vehicle / Change in ear thickness (mean ± SD, ×0.01 mm): PMA, 5 hr post-PMA
Description: as §1, §2, §3

[3] = DPPH free radical scavenging; settings: DPPH 0.1 mM, 20 minutes; read-out: Free radical scavenging ability EC50
Description: The antioxidant (free radical trapping) activity of test compounds was assessed using the stable free radical compound 2,2-diphenyl-1-picrylhydrazyl (DPPH). A stock solution of DPPH was prepared at a concentration of 0.1 mM in ethanol and mixed for 10 minutes prior to use. Test compounds at a concentration of 100 μM were reacted with DPPH for 20 minutes, after which time the absorbance at 517 nm was determined and the change in absorbance compared to a reagent blank (DPPH with ethanol alone). A dose response curve was produced for those compounds with free radical scavenging activity (ΔAbs>0.3) at 100 μM. The IC50 value was estimated as the concentration of test compound that caused a 0.6 change in absorbance (with 1.2 absorbance units representing total scavenging of the DPPH radical).

red blood cells = assay: Peroxyl radical (AAPH)-induced red blood cell lysis; format: cell-based; settings: 10 μM; AAPH-induced RBC lysis; vehicle 40.0
Description: Freshly collected heparinised venous blood (10 ml, on ice) was aliquotted into 1.8 ml sterile eppendorf tubes and centrifuged for 10 minutes at 2600 rpm at 4° C. Plasma and buffy coat layers were removed (approximately 900 μl) and packed red blood cells (RBC) were then washed by the addition of 900 μl of sterile, ice cold PBS. This washing procedure was repeated twice. Packed RBC were resuspended by the addition of 900 μl of ice-cold, sterile PBS (and termed RBC stock). RBC stocks were stored at 4° C. for a maximum of three days. All working suspensions of RBC were prepared fresh daily by diluting 200 μl of RBC stock into 10 ml of ice-cold, sterile PBS and 50 μl added to each well.
The free radical generator AAPH (1.22 gm) was dissolved in 7.5 ml of PBS to yield a 4× stock at 600 mM and 50 μl aliquots (final concentration of 150 mM) were then added to each well to initiate the lysis assay. Test compounds were examined at […] (in DMSO 0.25%). Appropriate controls were included in each experiment. Peroxyl-induced RBC lysis assays were performed in 96-flat bottom well microtitre plates with a total volume of 200 μl per well. Turbidity of RBC suspensions were monitored using a Tecan microplate reader at 690 nm (37° C.) with gentle vortexing. Assays were performed in quadruplicate and readings were taken every 5 minutes over 5 hours. RBC lysis curves were constructed by plotting absorbance (mean of 4 readings) against time. Time to half-lysis was calculated by taking the highest absorbance reading (no lysis) and the lowest absorbance reading (maximum lysis). The sum of these two readings divided by two gave the absorbance at half-lysis. Simple regression analysis was used to calculate the time at which half-lysis absorbance occurred.

superoxide = assay: Extracellular superoxide production by differentiated HL-60 cells (cytochrome C reduction); format: cell-based, human; settings: for extracellular superoxide production, % change compared with vehicle control: HL-60, PMA; for inhibition of superoxide production: Cpd. 16 at 100 μM
Description: The human promyeloblast cell line HL-60 can be differentiated into neutrophil-like cells, which then produce ROS when activated. HL-60 cells were grown in RPMI-1640 medium containing glutamine and supplemented with FBS 20%. They were differentiated by culturing for 6 days in medium containing DMSO 1.25%, after which they were washed, centrifuged and incubated at 37° C. for 5 minutes with cytochalasin before transfer to PBS containing cytochrome C and test compound. After a 5 minute incubation, phorbol myristate acetate (PMA) was added to activate the HL-60 cells, which were then incubated for a further 10 minutes. The cells were then pelleted by centrifugation, and the change in absorbance due to reduction of cytochrome C in the cell-free supernatant was measured at 550 nm. The increase in absorbance is a direct measure of extracellular superoxide production by the cells, and a reduction in those samples incubated with test compounds would indicate anti-oxidant activity. Samples were examined in duplicate, and the assay done three times.

Structure (SMILES) | EC50 [3] [µM] | IC50 (HUVSMC) [µM] | synthesis of TNFα (TNFα) | ear oedema caused by the application of AA [1] | % Change compared with vehicle [1] [%] | Change in ear thickness (mean ± SD, ×0.01 mm) [1] [×0.01 mm] | % Change compared with vehicle [2] | Change in ear thickness (mean ± SD, ×0.01 mm) [2] [×0.01 mm] | Time taken to reach half-lysis (red blood cells) [min] | extracellular superoxide production, % change compared with vehicle control (superoxide; 10 μM) [%] | extracellular superoxide production, % change compared with vehicle control (superoxide; 100 μM) | inhibition of superoxide production (superoxide) | inflammation caused by the application of PMA [2]
COc1ccc(C2=Cc3ccc(O)cc3OC2)cc1OC [Cpd. 18, 7-Hydroxy-3′,4′-dimethoxyisoflav-3-ene] | 48 | 140 | inhibited | significant reduction | −40 | 8.4 ± 3.7 | −1% | 29.6 ± 2.7 | 107.7 | −24 | −36* % |  | 
Cc1c(O)ccc2c1OCC(c1cccc(O)c1)=C2 [Cpd. 14, 3′,7-Dihydroxy-8-methylisoflav-3-ene] | 47 | 64 | tended to do so | significant reduction | −34 | 10.7 ± 2.9 | +7% | 27.9 ± 3.8 | 134.7 | −20 | −20% | trend towards inhibition | 
COc1cccc(C2=Cc3ccc(O)cc3OC2)c1 [Cpd. 16, 7-Hydroxy-3′-methoxyisoflav-3-ene] | 45 | 63 | tended to do so | significant reduction | −29 | 11.6 ± 2.9 | −11% | 23.3 ± 4.5 | 164.3 | −22 | −57* % | significantly inhibited | 

The next lines start with results.

EC50 [3] [µM] | Structure (SMILES) | IC50 (HUVSMC) [µM] | synthesis of TNFα (TNFα) | ear oedema caused by the application of AA [1] | % Change compared with vehicle [1] [%] | Change in ear thickness (mean ± SD, ×0.01 mm) [1] [×0.01 mm] | % Change compared with vehicle [2] | Change in ear thickness (mean ± SD, ×0.01 mm) [2] [×0.01 mm] | Time taken to reach half-lysis (red blood cells) [min] | extracellular superoxide production, % change compared with vehicle control (superoxide; 10 μM) [%] | extracellular superoxide production, % change compared with vehicle control (superoxide; 100 μM) | inhibition of superoxide production (superoxide) | inflammation caused by the application of PMA [2]
24 | Oc1ccc(C2=Cc3ccc(O)c(Br)c3OC2)cc1 [Cpd. 20, 4′,7-Dihydroxy-8-bromoisoflav-3-ene] | 32 | tended to do so |  | −11 | 14.4 ± 6.1 | +4% | 22.7 ± 4.7 | 122.0 | 6 | 28% | not active | 
43 | Oc1ccc2c(c1)OCC(c1ccc(Br)cc1)=C2 [Cpd. 21, 4′-Bromo-7-hydroxyisoflav-3-ene] | 8 | inhibited |  | −11 | 14.4 ± 5.1 | +24% | 27.2 ± 8.6 | 140.8 | −10 | −11% | trend towards inhibition | 
74 | COc1ccc(C2=Cc3ccc(O)c(C)c3OC2)cc1OC [Cpd. 19, 7-Hydroxy-3′,4′-dimethoxy-8-methylisoflav-3-ene] | 34 | inhibited | significant reduction | −34 | 9.3 ± 3.9 | −26% | 22.1 ± 3.9 | 111.6 | −11 | 16% | trend towards inhibition | significantly inhibited
